From ChEMBL document CHEMBL5108007, “High ligand efficiency quinazoline compounds as novel A2A adenosine receptor antagonists” (Eur J Med Chem, 2022)

Molecular target: Adenosine receptor A2a (Homo sapiens, UniProt P29274)
Experiment: Displacement of [3H]ZM241385 from human adenosine A2A receptor expressed in HEK293 cell membrane incubated for 1 hr by microplate beta scintillation counting based radioligand inhibition assay
Assay type: cell membranes

Sequence of Adenosine receptor A2a (P29274 whole entry): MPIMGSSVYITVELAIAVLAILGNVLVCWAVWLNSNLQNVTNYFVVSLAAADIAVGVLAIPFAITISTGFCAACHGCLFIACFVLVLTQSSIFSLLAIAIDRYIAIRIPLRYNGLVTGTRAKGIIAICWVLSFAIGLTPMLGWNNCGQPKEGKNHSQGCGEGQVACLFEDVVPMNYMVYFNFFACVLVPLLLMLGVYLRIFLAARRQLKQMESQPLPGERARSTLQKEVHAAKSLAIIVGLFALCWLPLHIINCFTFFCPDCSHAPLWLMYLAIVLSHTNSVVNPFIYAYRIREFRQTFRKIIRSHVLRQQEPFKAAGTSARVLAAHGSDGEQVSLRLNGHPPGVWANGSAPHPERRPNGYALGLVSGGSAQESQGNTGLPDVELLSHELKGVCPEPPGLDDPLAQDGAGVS

| Ki | SMILES |
| --- | --- |
| 80 nM | Nc1nc(-c2ccc(F)cc2)c2ccccc2n1 |
| 651 nM | COc1ccccc1-c1nc(N)nc2ccccc12 |
| > 10000 nM | Nc1nc(-c2ccccc2)nc2ccccc12 |
| 1500 nM | Cc1ccc(-c2nc(N)nc3ccccc23)cc1 |
| 198 nM | Nc1nc(-c2ccccc2)c2ccccc2n1 |
| 4000 nM | C(#Cc1ncnc2ccccc12)c1ccccc1 |
| 3300 nM | Cc1ccccc1-c1nc(N)nc2ccccc12 |
| 456 nM | Nc1nc(-c2ccccc2F)c2ccccc2n1 |
| > 10000 nM | NCc1nc(-c2ccccc2)c2ccccc2n1 |
| > 10000 nM | Cc1cccc(C)c1-c1nc(N)nc2ccccc12 |
| 89 nM | Nc1nc(-c2ccco2)c2ccccc2n1 |
| > 10000 nM | Nc1nc(Nc2ccccc2)c2ccccc2n1 |
| 586 nM | N#Cc1cccc(-c2nc(N)nc3ccccc23)c1 |
| > 10000 nM | NCc1nc(-c2ccco2)c2ccccc2n1 |
| 2000 nM | Nc1nc(-c2ccccc2N)c2ccccc2n1 |
| 2300 nM | c1ccc(-c2ncnc3ccccc23)cc1 |
| 174 nM | Nc1nc(-c2cccc(F)c2)c2ccccc2n1 |
| > 10000 nM | Nc1nc(CCc2ccccc2)c2ccccc2n1 |
| 708 nM | COc1cccc(-c2nc(N)nc3ccccc23)c1 |
| > 10000 nM | Nc1nc(NCc2ccccc2)c2ccccc2n1 |
| 736 nM | COc1ccc(-c2nc(N)nc3ccccc23)cc1 |
| > 10000 nM | Clc1nc(-c2ccccc2)c2ccccc2n1 |
| > 10000 nM | NCc1nc(NCCc2ccccc2)c2ccccc2n1 |
| > 10000 nM | Nc1nc(-c2ccccc2[N+](=O)[O-])c2ccccc2n1 |
| > 10000 nM | Oc1nc(-c2ccccc2)c2ccccc2n1 |
| > 10000 nM | CC(C)(C)c1ccc(-c2nc(N)nc3ccccc23)cc1 |
| > 10000 nM | Nc1nc(NCCc2ccccc2)c2ccccc2n1 |
| 171 nM | Nc1nc(-c2cccs2)c2ccccc2n1 |
| 696 nM | Nc1nc(-c2ccoc2)c2ccccc2n1 |

| SMILES | Ki |
| --- | --- |
| c1ccc(CCNc2ncnc3ccccc23)cc1 | > 10000 nM |
